Where a name gives a salt, the structure may show the parent alone. Read-outs that look alike come from different tables or passages of the source.
What was measured:
[1] = system: writhing syndrome in dd-strain male mice; experiment: Analgetic effect (acetic acid writhing syndrome); format: in vivo; settings: Mus musculus, po, orally, 0.6% acetic acid writhing, Litchfield-Wilcoxon, read-out: analgetic effect ED50 (95 % C.L.)
Method: 3. Analgetic effect Each test compound suspended in 0.5% tragacanth-saline solution was orally administered to dd-strain male mice (18-20 g). After one hour 0.6% acetic acid solution was intraperitoneally injected in a volume of 0.1 ml/10 g.

[2] = system: carrageenin edema in Wistar-strain male rats; experiment: Anti-inflammatory effect (carrageenin edema of the hind paw); format: in vivo; settings: for inhibition in vivo at 10 mg/kg / inhibition in vivo at 50 mg/kg: Rattus norvegicus, po; for inhibition in vivo at 10 mg/kg: read-out: anti-inflammatory effect dose(mg/kg) 10 (inhibition percentage of carrageenin edema); for inhibition in vivo at 50 mg/kg: read-out: anti-inflammatory effect dose(mg/kg) 50 (inhibition percentage of carrageenin edema)
Method: 2. Anti-inflammatory effect
A group of five Wistar-strain male rats (100-150 g) were orally administered with each test compound suspended in 0.5% tragacanth-saline solution. After 30 minutes 0.5-1.0% carrageenin suspended in the water for injection was injected subcutaneously to a hind paw. After 3 hours the carrageenin edema was measured by volume and the inhibition percentage was determined with respect to the results for the control animals. The inhibition percentages were shown with the notations as follows: […]

[3] = system: dd-strain male mice; settings: deaths 72 hours after administration
Method: The lethal dose was estimated from the death of animals 72 hours after administration.

[4] = system: righting reflex of dd-strain male mice; experiment: Central nervous system depressive effect (disappearance of righting reflex); format: in vivo; settings: Mus musculus, ip, read-out: C N S depressive effect (dose required for the disappearance of righting reflex)
Method: 4. Central nervous system depressive effect
Each test compound suspended in 0.5% tragacanth-saline solution was injected intraperitoneally to dd-strain male mice (16-24 g). The disappearance of righting reflex was observed under noiseless circumstances. The dose required for the disappearance of righting reflex is indicated with the following notations: […]

[5] = system: writhing syndrome in dd-strain male mice; experiment: Analgetic effect (acetic acid writhing syndrome); format: in vivo; settings: Mus musculus, ip, read-out: analgetic effect ED50 (95 % C.L.), i.p.
[6] = 10 mg/kg orally, rats, edema volume 3 hours after carrageenin
[7] = 50 mg/kg orally, rats, edema volume 3 hours after carrageenin

SMILES | ED50 [1] [mg/kg] | inhibition in vivo at 10 mg/kg [2, 6] [%] | inhibition in vivo at 50 mg/kg [2, 7] [%] | acute toxicity i.p. (lethal dose) [3] | acute toxicity p.o. (lethal dose) [3] [mg/kg] | minimal effective dose ([4]; intraperitoneally, mice) [mg/kg] | ED50 [5] [mg/kg] | inhibition in vivo at 10 mg/kg ([2]; 3 h) [%] | inhibition in vivo at 50 mg/kg ([2]; 3 h) [%] | minimal effective dose [4] [mg/kg] | anti-inflammatory effect dose(mg/kg) 10 (inhibition percentage of carrageenin edema) [2, 6]
CC(C)N1CN(c2cccc(Cl)c2)c2ncccc2C1=O | > 100 | 16 to 30 | 31 to 45 | – | – | – | – | – | – | – | –
CC(C)N1CN(c2cccc([N+](=O)[O-])c2)c2ncccc2C1=O | 4.7 | 46 to 60 | 46 to 60 | > 1000 mg/kg | < 2000 | 100 to 300 | – | – | – | – | –
CC(C)N1Cc2cccnc2N(c2cccc(F)c2)C1=O | 4.5 | 31 to 45 | > 61 | – | – | 3 to 10 | – | – | – | – | –
CC(C)N1Cc2cccnc2N(c2cccc(C(F)(F)F)c2)C1=O | 6.7 | < 15 | 46 to 60 | > 1000 mg/kg | 2000 | 10 to 30 | – | – | – | – | –
CC(C)N1Cc2cccnc2N(c2ccc(Cl)c(Cl)c2)C1=O | 16.3 | 46 to 60 | > 61 | 1000 mg/kg | 2000 | 3 to 10 | – | – | – | – | –
Cc1c(N(C)C)c(=O)n(-c2ccccc2)n1C [aminopyrine, reference compound] | – | < 15 | < 15 | 100 to 300 mg/kg | – | – | 56 | – | – | – | –
CN1C(=O)CN=C(c2ccccc2)c2cc(Cl)ccc21 [diazepam, reference compound] | – | – | – | – | – | – | – | < 15 | 16 to 30 | 30 to 100 | –
COCN1CN(c2cccc(Cl)c2)c2ncccc2C1=O [drawing 119/CH2 OCH3] | > 100 | 16 to 30 | 16 to 30 | – | – | – | – | – | – | – | –
CCN1CN(c2cccc(Br)c2)c2ncccc2C1=O [drawing 121/C2 H5] | > 100 | – | 31 to 45 | > 1000 mg/kg | – | 30 to 100 | – | – | – | – | –
CN1CN(c2cccc(Br)c2)c2ncccc2C1=O [drawing 121/CH3] | > 100 | – | < 15 | > 1000 mg/kg | – | 30 to 100 | – | – | – | – | –
CCN1CN(c2cccc(C(F)(F)F)c2)c2ncccc2C1=O [drawing 122/C2 H5] | > 100 | 16 to 30 | > 61 | > 1000 mg/kg | – | 30 to 100 | – | – | – | – | –
CN1CN(c2cccc(C(F)(F)F)c2)c2ncccc2C1=O [drawing 122/CH3] | – | 16 to 30 | < 15 | – | – | – | – | – | – | – | –
CCN1CN(c2cccc([N+](=O)[O-])c2)c2ncccc2C1=O [drawing 123/C2 H5] | 1.95 | 31 to 45 | > 61 | 1000 mg/kg | 2000 | 30 to 100 | – | – | – | – | –
COCN1CN(c2cccc([N+](=O)[O-])c2)c2ncccc2C1=O [drawing 123/CH2 OCH3 . HCl] | 2.7 | 46 to 60 | 46 to 60 | – | < 2000 | – | – | – | – | – | –
CN1CN(c2cccc([N+](=O)[O-])c2)c2ncccc2C1=O [drawing 123/CH3, 1-(m-nitrophenyl)-3-methyl-4-oxo-1,2,3,4-tetrahydropyrido[2,3-d]pyrimidine] | 22 | < 15 | 16 to 30 | > 1000 mg/kg | – | > 1000 | – | – | – | – | –
CCN1Cc2cccnc2N(c2ccccc2)C1=O [drawing 126/C2 H5] | 2.1 | 46 to 60 | 46 to 60 | 300 mg/kg | – | 3 to 10 | – | – | – | – | –
CN1Cc2cccnc2N(c2ccccc2)C1=O [drawing 126/CH3] | 13 | 31 to 45 | 46 to 60 | – | – | 3 to 10 | – | – | – | – | –
CCN1Cc2cccnc2N(c2cccc(F)c2)C1=O [drawing 127/C2 H5] | 4.4 | > 61 | > 61 | – | – | < 3 | – | – | – | – | –

SMILES | ED50 [1] [mg/kg] | inhibition in vivo at 10 mg/kg [2, 6] [%] | inhibition in vivo at 50 mg/kg [2, 7] [%] | acute toxicity i.p. (lethal dose) [3] | acute toxicity p.o. (lethal dose) [3] [mg/kg] | minimal effective dose ([4]; intraperitoneally, mice) [mg/kg] | ED50 [5] [mg/kg] | inhibition in vivo at 10 mg/kg ([2]; 3 h) [%] | inhibition in vivo at 50 mg/kg ([2]; 3 h) [%] | minimal effective dose [4] [mg/kg] | anti-inflammatory effect dose(mg/kg) 10 (inhibition percentage of carrageenin edema) [2, 6]
CCN1Cc2cccnc2N(c2ccc(F)cc2)C1=O [drawing 129/C2 H5] | 4.9 | 46 to 60 | 46 to 60 | – | – | 10 to 30 | – | – | – | – | –
CN1Cc2cccnc2N(c2ccccc2Cl)C1=O [drawing 130/CH3] | 44 | – | 16 to 30 | – | – | 30 to 100 | – | – | – | – | –
C=CCN1Cc2cccnc2N(c2cccc(Cl)c2)C1=O [drawing 132/CH2 CHCH2] | 1.2 | 46 to 60 | 46 to 60 | – | – | 3 to 10 | – | – | – | – | –
COCN1Cc2cccnc2N(c2cccc(Cl)c2)C1=O [drawing 132/CH2 OCH3] | 1.6 | 46 to 60 | > 61 | – | – | 3 to 10 | – | – | – | – | –
CN1Cc2cccnc2N(c2cccc(Cl)c2)C1=O [drawing 132/CH3, 1-(m-chlorophenyl)-3-methyl-2-oxo-1,2,3,4-tetrahydropyrido[2,3-d]pyrimidine] | 13 | 46 to 60 | > 61 | – | – | < 3 | – | – | – | – | –
CCN1Cc2cccnc2N(c2ccc(Cl)cc2)C1=O [drawing 133/C2 H5] | 49 | – | 46 to 60 | – | – | < 3 | – | – | – | – | + ++
CCN1Cc2cccnc2N(c2cccc(Br)c2)C1=O [drawing 134/C2 H5] | 2.85 | 46 to 60 | 46 to 60 | 100 300 mg/kg | – | < 3 | – | – | – | – | –
CCCN1Cc2cccnc2N(c2cccc(Br)c2)C1=O [drawing 134/CH2 CH2 CH3] | 2.65 | 46 to 60 | 46 to 60 | – | < 2000 | 3 to 10 | – | – | – | – | –
CCN1Cc2cccnc2N(c2cccc(C(F)(F)F)c2)C1=O [drawing 135/C2 H5, 1-(m-trifluoromethylphenyl)-3-ethyl-2-oxo-1,2,3,4-tetrahydropyrido[2,3-d]pyrimidine] | 6.3 | 31 to 45 | 46 to 60 | – | – | 3 to 10 | – | – | – | – | –
O=C1N(CCO)Cc2cccnc2N1c1cccc(C(F)(F)F)c1 [drawing 135/CH2 CH2 OH] | 55 | – | 16 to 30 | > 1000 mg/kg | > 2000 | > 1000 | – | – | – | – | –
O=C(O)CN1Cc2cccnc2N(c2cccc(C(F)(F)F)c2)C1=O [drawing 135/CH2 COOH] | > 100 | – | – | > 1000 mg/kg | > 2000 | > 1000 | – | – | – | – | –
COCN1Cc2cccnc2N(c2cccc(C(F)(F)F)c2)C1=O [drawing 135/CH2 OCH3] | 8.1 | – | 31 to 45 | – | – | 10 to 30 | – | – | – | – | –
CN1Cc2cccnc2N(c2cccc(C(F)(F)F)c2)C1=O [drawing 135/CH3, 1-(m-trifluoromethylphenyl)-3-methyl-2-oxo-1,2,3,4-tetrahydropyrido[2,3-d]pyrimidine] | 6.6 | 16 to 30 | 46 to 60 | – | < 500 | 3 to 10 | – | – | – | – | –
CCN1Cc2cccnc2N(c2ccc(Cl)c(Cl)c2)C1=O [drawing 137/C2 H5] | 1.3 | 46 to 60 | 46 to 60 | – | – | < 3 | – | – | – | – | –
O=C1N(CCF)Cc2cccnc2N1c1ccc(Cl)c(Cl)c1 [drawing 137/CH2 CH2 F] | 1 | > 61 | – | – | – | 3 to 10 | – | – | – | – | –
O=C(O)c1ccccc1Nc1cccc(C(F)(F)F)c1 [flufenamic acid, reference compound] | 180 | < 15 | 16 to 30 | 300 to 1000 mg/kg | – | > 1000 | – | – | – | – | –
Cc1ccccc1-n1c(C)nc2ccccc2c1=O [methaqualone, reference compound] | – | – | – | – | – | – | – | – | – | 10 to 30 | –
CCCCC1C(=O)N(c2ccccc2)N(c2ccccc2)C1=O [phenylbutazone, reference compound] | 290 | < 15 | 31 to 45 | – | – | 300 to 1000 | – | – | – | – | –

From patent US4009166A, “Pyrido(2,3-d) pyrimidinones” (Hisamitsu Pharmaceutical Co., Inc., priority 1974, dated 1977)
